Data taken from the supplement of paper PMC11208160.

Assay: recombinant barcode read abundance after kanamycin selection (control-corrected) (log10(CPM+1)); higher = more efficient recombination; sequences stand for … in AGTGCAGAGAAAATCGGCCAGTTTTCTCTGCCTGCAGTCCGCATGCCGT…AGATTTATGCAGCGGACTGCCTTTCTCCCAAAGTGATAAACCGGACAGTATCATGGACCGGTTTTCCCGGTAATCCGTATTTGCAAGGTTGGTTTCACT; site = the 11-nt target
Protocol: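 Pooled E. coli target-specificity screen for the IS621 bridge recombinase. Each library plasmid pairs an 11-nt target (CT core) with a bridge RNA whose target-binding loop (9-nt LTG + 4-nt RTG) is reprogrammed; the rest of the 177-nt WT IS621 bridge RNA scaffold is fixed. The plasmid is co-electroporated with a WT donor plasmid; recombinase is induced with 0.1 mM IPTG and recombinants are selected on kanamycin. Recombinant barcodes are sequenced, converted to CPM, averaged over two biological replicates and corrected by the unselected control CPM. Molecule = full bridge RNA written as DNA: LTG = specificity nt 1-9, RTG = reverse complement of specificity nt 8-11, in the WT scaffold.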
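Wherever recombinant UMI read abundance after kanamycin selection (control-corrected) is given: IS621 bridge recombinase in Escherichia coli cells against a fixed T5 target plasmid.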
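Wherever recombinant barcode read abundance after kanamycin selection (control-corrected) is given: IS621 recombinase and bridge RNA in Escherichia coli cells.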

Sequence | recombinant barcode read abundance (log10)
AACGCCTCTTGGGTTCTAACCTGTTGCCT (site GACGCCTCTAG) | 0.178
AACGCCTCTTGGGTTCTAACCTGTTGCCT (site TACGCCTCTAG) | 0.274
AACGTGTCTTGGGTTCTAACCTGTTGCCT (site AAAGTGTCTAG) | 0.375
AACGTGTCTTGGGTTCTAACCTGTTGCCT (site AACGTGTCTAG) | 2.57
AACGTGTCTTGGGTTCTAACCTGTTGCCT (site AAGGTGTCTAG) | 0.103
AACGTGTCTTGGGTTCTAACCTGTTGCCT (site AATGTGTCTAG) | 0.543
AACTGAACTTGGGTTCTAACCTGTTGCCT (site AACTAAACTAG) | 0.18
AACTGAACTTGGGTTCTAACCTGTTGCCT (site AACTCAACTAG) | 0.056
AACTGAACTTGGGTTCTAACCTGTTGCCT (site AACTGAACTAG) | 0.459
AACTGAACTTGGGTTCTAACCTGTTGCCT (site AACTTAACTAG) | 0.0689
AACTTCCCTTGGGTTCTAACCTGTTGCCT (site AACTTCACTAG) | 0.0364
AACTTCCCTTGGGTTCTAACCTGTTGCCT (site AACTTCCCTAG) | 0.315
AACTTCCCTTGGGTTCTAACCTGTTGCCT (site AACTTCGCTAG) | 0.00996
AACTTCCCTTGGGTTCTAACCTGTTGCCT (site AACTTCTCTAG) | 0.0342
AACTTCTCTTGGGTTCTAACCTGTTGCCT (site AACTTCACTAG) | 0.184
AACTTCTCTTGGGTTCTAACCTGTTGCCT (site AACTTCCCTAG) | 0.242
AACTTCTCTTGGGTTCTAACCTGTTGCCT (site AACTTCGCTAG) | 0.0209
AACTTCTCTTGGGTTCTAACCTGTTGCCT (site AACTTCTCTAG) | 0.917

Sequence | recombinant barcode read abundance (log10)
AAGAACACTTGGGTTCTAACCTGTTGCCT (site AAGAACACTAG) | 2.06
AAGAACACTTGGGTTCTAACCTGTTGCCT (site CAGAACACTAG) | 0.46
AAGAACACTTGGGTTCTAACCTGTTGCCT (site GAGAACACTAG) | 0.233
AAGAACACTTGGGTTCTAACCTGTTGCCT (site TAGAACACTAG) | 1.19
AAGAACTCTTGGGTTCTAACCTGTTGCCA (site AAGAACTCTTG) | 1.11
AAGAACTCTTGGGTTCTAACCTGTTGCCA (site GGCGTGCCTAC) | 0.199
AAGACAGCTTGGGTTCTAACCTGTTGCCT (site AAGAAAGCTAG) | 0.403
AAGACAGCTTGGGTTCTAACCTGTTGCCT (site AAGACAGCTAG) | 1.19
AAGACAGCTTGGGTTCTAACCTGTTGCCT (site AAGAGAGCTAG) | 0.0524
AAGACAGCTTGGGTTCTAACCTGTTGCCT (site AAGATAGCTAG) | 0.0189
AAGACCTCTTGGGTTCTAACCTGTTGCTT (site AAGACCTCTAA) | 1.76
AAGACCTCTTGGGTTCTAACCTGTTGCTT (site AAGCCCTCTAA) | 0.139
AAGACCTCTTGGGTTCTAACCTGTTGCTT (site AAGGCCTCTAA) | 0.255
AAGACCTCTTGGGTTCTAACCTGTTGCTT (site AAGTCCTCTAA) | 0.134
AAGACTCCTTGGGTTCTAACCTGTTGCTT (site AACACTCCTAA) | 0.287
AAGACTCCTTGGGTTCTAACCTGTTGCTT (site AAGACTCCTAA) | 1.05
AAGAGAGCTTGGGTTCTAACCTGTTGCCT (site AAGAAAGCTAG) | 0.0985
AAGAGAGCTTGGGTTCTAACCTGTTGCCT (site AAGACAGCTAG) | 0.154

Assay: recombinant UMI read abundance after kanamycin selection (control-corrected) (log10(CPM+1)); higher = more efficient recombination; extreme values may be limits of the assay; sequences stand for … in AGTGCAGAGAAAATCGGCCAGTTTTCTCTGCCTGCAGTCCGCATGCCGTGGGACCCCTTGGGTTCTAACCTGTTGCCTAGATTTATGCAGCGGACTGCCTTTCTCCCAAAGTGATAAACCGG…AGGTTGGTTTCACT; site = the 11-nt donor
Summary of the method: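 The measure is log10(CPM+1) for recombinant UMIs. These were PCR-amplified across the donor–target junction and sequenced after Escherichia coli carrying a donor and donor-binding-loop pair library and a target plasmid with T7-inducible IS621 bridge recombinase was plated on IPTG (0.07 mM) plus kanamycin or unselected. CPM were averaged over two replicates and scaled by control-derived factors.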

Sequence | recombinant UMI read abundance (log10)
TTTGTTCCATGGACCGGTTTTCCCGGTAATCCGTATTTGGT (site GTTGTTCCTAC) | 0.0225
TTTGTTCCATGGACCGGTTTTCCCGGTAATCCGTATTTGGT (site TTTGTTCCTAC) | 0.0215
